# Assay results from patent publication EP4410284A1, “COMPOUND AND METHOD FOR THE TREATMENT OF ZELLWEGER SPECTRUM DISORDER” (Apteeus, priority 2023, dated 2024).
# Where two headings read alike, the source gives them in different places.
# Columns and labels:
# GM16513 cells [1] = assay: Catalase import immunofluorescence, high-content screening (% importing cells); format: cell-based, human; settings: for EC50 / Emax: Homo sapiens, 72 h; for Emax: read-out: Max Efficacy (% Importing cells)
# PEX405 cells [2] = assay: as above; format: cell-based, human; settings: PEX405 cells, 3 days
# PEX405 cells [3] = format: cell-based; settings: 3 days, PI positive cells (dead cells)
# GM16513 cells [4] = format: cell-based; settings: 3 days, PI positive cells (dead cells)
# [5] = GM16513 cells, dose response with 6 concentrations, 3 days, read-out: EC50
# [6] = GM16513 cells, dose response with 6 concentrations, 3 days
Molecule,"% Importing cells (GM16513 cells [1]; GM16513 cells, 1.3 µM, 3 days)","% Importing cells (GM16513 cells [1]; GM16513 cells, 10 µM, 3 days)",% Importing cells (PEX405 cells [2]; 1.3 µM),% Importing cells (PEX405 cells [2]; 10 µM),% PI+ cells (PEX405 cells [3]; 1.3 µM),% PI+ cells (PEX405 cells [3]; 10 µM),% PI+ cells (GM16513 cells [4]; 1.3 µM),% PI+ cells (GM16513 cells [4]; 10 µM),EC50 (GM16513 cells [1]; [5]),Emax (GM16513 cells [1]; [6]),EC50 (GM16513 cells [1]),Emax (GM16513 cells [1])
CCOC(=O)c1cnc(NC2(c3ccccc3)CC2)nc1 [CG347B],25%,21%,4%,5%,1%,0%,1%,1%,–,–,–,–
O=C(NO)C(c1ccc(-c2ncc(C(F)(F)F)cn2)cc1)c1ccccc1F (centres unmarked) [CHDI-390576],10%,4%,2%,0%,–,–,–,–,–,–,–,–
C#Cc1cccc(Nc2ncnc3cc(OC)c(OCCCCCCC(=O)NO)cc23)c1 [CUDC-101],60%,90%,23%,49%,1%,44%,2%,23%,700 nM,100%,–,–
Cc1nn(C)cc1CN1CCC(c2ccc(C(=O)Nc3ccccc3N)cc2)CC1 [CXD101],–,–,19%,4%,0%,8%,2%,7%,–,–,–,–
O=C(CCCCCCNC(=O)c1cnc(N(c2ccccc2)c2ccccc2Cl)nc1)NO [Citarinostat],47%,90%,9%,53%,0%,2%,1%,4%,3200 nM,93%,–,–
Nc1ccccc1NC(=O)c1ccc(CCCC(=O)Nc2ccc([C@@H]3C[C@H]3N)cc2)cc1 [Corin],59%,44%,17%,11%,2%,66%,5%,34%,–,–,–,–
Nc1[nH]c(=O)nc2c1ncn2[C@@H]1O[C@H](CO)[C@@H](O)[C@H]1O [Crotonoside],20%,18%,3%,3%,0%,1%,1%,1%,–,–,–,–
O=C(/C=C/c1ccc(CN(CCO)CCc2c[nH]c3ccccc23)cc1)NO [Dacinostat],88%,76%,25%,0%,45%,56%,31%,35%,–,–,–,–
Cn1cc(-c2ccc(S(=O)(=O)n3ccc(/C=C/C(=O)Nc4ccccc4N)c3)cc2)cn1 [Domatinostat],21%,33%,4%,7%,5%,8%,6%,7%,600 nM,33%,–,–
Cc1cc(Cl)ccc1OCCCC(=O)NO [Droxinostat],12%,23%,3%,4%,0%,2%,1%,1%,–,–,–,–
Cn1c(CCCCCCC(=O)NO)nc2cc(N(CCCl)CCCl)ccc21 [EDO-S101],35%,89%,7%,55%,1%,7%,2%,8%,–,–,3000 nM,90%
Nc1ccccc1NC(=O)c1ccc(CNC(=O)OCc2cccnc2)cc1 [Entinostat],45%,58%,15%,12%,2%,6%,2%,7%,470 nM,54%,–,–
Cl.O=C(NO)c1ccc(Cn2cc(-c3ccc(CN4CCCC4)cc3)nn2)cc1 [FNDR-20123],84%,47%,7%,0%,9%,61%,11%,40%,–,–,–,–
CC1(C)c2cccc(C(=O)NO)c2CN1c1cnc(C(F)(F)F)cn1 [FT895],14%,4%,1%,0%,0%,1%,1%,7%,–,–,–,–
Cc1ccc(C(=O)NCCCCCC(=O)Nc2ccccc2N)cc1 [RG2833],–,–,–,–,–,–,1%,3%,–,–,–,–
Oxamflatin,99%,59%,33%,15%,–,–,–,–,–,–,–,–
